Reference: the NIST ThermoML archive (doi:10.1021/je700260f)
Several values for one entry are separate records, joined by “and”; a condition that tells them apart may be missing. Identical values can stand only once.

Conditions: Liquid, Vibrating tube method

FC(C(F)(F)F)C(F)(F)F [1,1,1,2,3,3,3-heptafluoropropane]
Conditions | mass density
283.15 K, 34529 kPa | 1579 kg/m3
283.15 K, 34530 kPa | 1579 kg/m3
283.15 K, 34532 kPa | 1579.1 kg/m3
283.15 K, 34533 kPa | 1579 kg/m3
283.15 K, 34534 kPa | 1579.1 kg/m3
283.15 K, 34535 kPa | 1579.2 kg/m3
283.15 K, 34536 kPa | 1579 kg/m3
283.15 K, 34538 kPa | 1579 kg/m3 and 1579.1 kg/m3
283.15 K, 34540 kPa | 1579.1 kg/m3
283.15 K, 34541 kPa | 1579.1 kg/m3
283.16 K, 9519 kPa | 1496 kg/m3
283.16 K, 9552 kPa | 1496.3 kg/m3
283.16 K, 9579 kPa | 1496.3 kg/m3
283.16 K, 9612 kPa | 1496.4 kg/m3
283.16 K, 21379 kPa | 1540.8 kg/m3
293.14 K, 783 kPa | 1411.5 kg/m3
293.14 K, 832 kPa | 1411.9 kg/m3
293.14 K, 869 kPa | 1412.2 kg/m3
293.14 K, 911 kPa | 1412.4 kg/m3
293.14 K, 943 kPa | 1412.7 kg/m3
293.14 K, 980 kPa | 1412.9 kg/m3
293.14 K, 1007 kPa | 1413.2 kg/m3
293.14 K, 1048 kPa | 1413.5 kg/m3
293.14 K, 1080 kPa | 1413.6 kg/m3
293.14 K, 1113 kPa | 1414 kg/m3
293.14 K, 1145 kPa | 1414.1 kg/m3
293.14 K, 1191 kPa | 1414.5 kg/m3
293.14 K, 1219 kPa | 1414.6 kg/m3
293.14 K, 1252 kPa | 1414.9 kg/m3
293.14 K, 1285 kPa | 1415 kg/m3
293.14 K, 1319 kPa | 1415.2 kg/m3
293.14 K, 1347 kPa | 1415.6 kg/m3
293.14 K, 1380 kPa | 1415.7 kg/m3
293.14 K, 1417 kPa | 1415.9 kg/m3
293.14 K, 1446 kPa | 1416.2 kg/m3
293.14 K, 1484 kPa | 1416.4 kg/m3
293.14 K, 1514 kPa | 1416.7 kg/m3
293.14 K, 1543 kPa | 1417 kg/m3
293.14 K, 1583 kPa | 1417.1 kg/m3
293.14 K, 1612 kPa | 1417.3 kg/m3
293.14 K, 1754 kPa | 1418.3 kg/m3
293.14 K, 1789 kPa | 1418.7 kg/m3
293.14 K, 1824 kPa | 1418.8 kg/m3
293.14 K, 1901 kPa | 1419.3 kg/m3
293.14 K, 1941 kPa | 1419.6 kg/m3
293.14 K, 1972 kPa | 1419.8 kg/m3
293.14 K, 2001 kPa | 1420.1 kg/m3
293.14 K, 2030 kPa | 1420.1 kg/m3
293.14 K, 2059 kPa | 1420.5 kg/m3
293.14 K, 2084 kPa | 1420.5 kg/m3
293.14 K, 2104 kPa | 1420.7 kg/m3
293.14 K, 2140 kPa | 1421 kg/m3
293.14 K, 2164 kPa | 1421 kg/m3
293.14 K, 2197 kPa | 1421.3 kg/m3
293.14 K, 2221 kPa | 1421.4 kg/m3
293.14 K, 2258 kPa | 1421.7 kg/m3
293.14 K, 2291 kPa | 1421.9 kg/m3
293.14 K, 2324 kPa | 1422.2 kg/m3
293.14 K, 2349 kPa | 1422.4 kg/m3
293.14 K, 2377 kPa | 1422.7 kg/m3
293.14 K, 2402 kPa | 1422.6 kg/m3
293.14 K, 2682 kPa | 1424.5 kg/m3
293.14 K, 2707 kPa | 1424.7 kg/m3
293.14 K, 2740 kPa | 1424.9 kg/m3
293.14 K, 2766 kPa | 1425.1 kg/m3
293.14 K, 2804 kPa | 1425.4 kg/m3
293.14 K, 2829 kPa | 1425.5 kg/m3
293.14 K, 2858 kPa | 1425.8 kg/m3
293.14 K, 2883 kPa | 1425.8 kg/m3
293.14 K, 2921 kPa | 1426.1 kg/m3
293.14 K, 2959 kPa | 1426.4 kg/m3
293.14 K, 2988 kPa | 1426.7 kg/m3
293.14 K, 3018 kPa | 1426.7 kg/m3
293.14 K, 3056 kPa | 1426.9 kg/m3
293.14 K, 3082 kPa | 1427.2 kg/m3
293.14 K, 3112 kPa | 1427.3 kg/m3
293.14 K, 3147 kPa | 1427.5 kg/m3
293.14 K, 3177 kPa | 1427.8 kg/m3
293.14 K, 3211 kPa | 1427.9 kg/m3
293.14 K, 3246 kPa | 1428.2 kg/m3
293.14 K, 3290 kPa | 1428.4 kg/m3
293.14 K, 3321 kPa | 1428.7 kg/m3
293.14 K, 3360 kPa | 1428.9 kg/m3
293.14 K, 3395 kPa | 1429.1 kg/m3
293.14 K, 3426 kPa | 1429.3 kg/m3
293.14 K, 3461 kPa | 1429.4 kg/m3
293.14 K, 3502 kPa | 1429.8 kg/m3
293.14 K, 3537 kPa | 1430 kg/m3
293.14 K, 3573 kPa | 1430.1 kg/m3
293.14 K, 3604 kPa | 1430.4 kg/m3
293.14 K, 3631 kPa | 1430.7 kg/m3
293.14 K, 3668 kPa | 1430.7 kg/m3
293.14 K, 3690 kPa | 1431.1 kg/m3
293.14 K, 3722 kPa | 1431 kg/m3
293.14 K, 3750 kPa | 1431.3 kg/m3
293.14 K, 3815 kPa | 1431.8 kg/m3
293.14 K, 3876 kPa | 1432.1 kg/m3
293.14 K, 4878 kPa | 1438.3 kg/m3
293.14 K, 4910 kPa | 1438.4 kg/m3
293.14 K, 4933 kPa | 1438.5 kg/m3
293.14 K, 4965 kPa | 1438.7 kg/m3
293.14 K, 4997 kPa | 1438.9 kg/m3
293.14 K, 5029 kPa | 1439.2 kg/m3
293.14 K, 7613 kPa | 1453.4 kg/m3
293.14 K, 7636 kPa | 1453.6 kg/m3
293.14 K, 7664 kPa | 1453.8 kg/m3
293.14 K, 7697 kPa | 1454 kg/m3
293.14 K, 7725 kPa | 1454 kg/m3
293.14 K, 7758 kPa | 1454.2 kg/m3
293.14 K, 7801 kPa | 1454.4 kg/m3
293.14 K, 7862 kPa | 1454.8 kg/m3
293.14 K, 7886 kPa | 1454.8 kg/m3
293.14 K, 7919 kPa | 1455.1 kg/m3
293.14 K, 7952 kPa | 1455.3 kg/m3
293.14 K, 7995 kPa | 1455.4 kg/m3
293.14 K, 8024 kPa | 1455.6 kg/m3
293.14 K, 8053 kPa | 1455.7 kg/m3
293.14 K, 8087 kPa | 1455.9 kg/m3
293.14 K, 8111 kPa | 1456.1 kg/m3
293.14 K, 8140 kPa | 1456.2 kg/m3
293.14 K, 8183 kPa | 1456.4 kg/m3
293.14 K, 8211 kPa | 1456.6 kg/m3
293.14 K, 8240 kPa | 1456.7 kg/m3
293.14 K, 8283 kPa | 1456.9 kg/m3
293.14 K, 8312 kPa | 1457.1 kg/m3
293.14 K, 8350 kPa | 1457.4 kg/m3
293.14 K, 8380 kPa | 1457.4 kg/m3
293.14 K, 8410 kPa | 1457.7 kg/m3
293.14 K, 8447 kPa | 1457.8 kg/m3
293.14 K, 8480 kPa | 1457.9 kg/m3
293.14 K, 8509 kPa | 1458.1 kg/m3
293.14 K, 8542 kPa | 1458.3 kg/m3
293.14 K, 9213 kPa | 1461.8 kg/m3
293.14 K, 9292 kPa | 1462.1 kg/m3
293.14 K, 9327 kPa | 1462.4 kg/m3
293.14 K, 9357 kPa | 1462.4 kg/m3
293.14 K, 9402 kPa | 1462.7 kg/m3
293.14 K, 9437 kPa | 1462.7 kg/m3
293.14 K, 9481 kPa | 1463 kg/m3
293.14 K, 9511 kPa | 1463.2 kg/m3
293.14 K, 9547 kPa | 1463.4 kg/m3
293.14 K, 9584 kPa | 1463.5 kg/m3
293.14 K, 9615 kPa | 1463.7 kg/m3
293.14 K, 9655 kPa | 1464 kg/m3
293.14 K, 9695 kPa | 1464.1 kg/m3
293.14 K, 9731 kPa | 1464.2 kg/m3
293.14 K, 9771 kPa | 1464.6 kg/m3
293.14 K, 9807 kPa | 1464.6 kg/m3
293.14 K, 9843 kPa | 1464.8 kg/m3
293.14 K, 9879 kPa | 1464.9 kg/m3
293.14 K, 9915 kPa | 1465.1 kg/m3
293.14 K, 9946 kPa | 1465.3 kg/m3
293.14 K, 10356 kPa | 1467.4 kg/m3
293.14 K, 10403 kPa | 1467.6 kg/m3
293.14 K, 10428 kPa | 1467.8 kg/m3
293.14 K, 10474 kPa | 1467.9 kg/m3
293.14 K, 10520 kPa | 1468.1 kg/m3
293.14 K, 11001 kPa | 1470.5 kg/m3
293.14 K, 12780 kPa | 1478.5 kg/m3
293.14 K, 12814 kPa | 1478.8 kg/m3
293.14 K, 12854 kPa | 1478.9 kg/m3
293.14 K, 12939 kPa | 1479.2 kg/m3
293.14 K, 13996 kPa | 1483.9 kg/m3
293.14 K, 14034 kPa | 1484.1 kg/m3
293.14 K, 16570 kPa | 1494.7 kg/m3
293.14 K, 16613 kPa | 1494.8 kg/m3
293.14 K, 16642 kPa | 1494.8 kg/m3
293.14 K, 16676 kPa | 1495.1 kg/m3
293.14 K, 16710 kPa | 1495.1 kg/m3
293.14 K, 16801 kPa | 1495.6 kg/m3
293.14 K, 17585 kPa | 1498.6 kg/m3
293.14 K, 17619 kPa | 1498.8 kg/m3
293.14 K, 19526 kPa | 1506.1 kg/m3
293.14 K, 19555 kPa | 1506.3 kg/m3
293.14 K, 19593 kPa | 1506.2 kg/m3
293.14 K, 20937 kPa | 1511.3 kg/m3
293.14 K, 21424 kPa | 1513.1 kg/m3
293.14 K, 21528 kPa | 1513.4 kg/m3
293.14 K, 21563 kPa | 1513.5 kg/m3
293.14 K, 21593 kPa | 1513.7 kg/m3
293.14 K, 21629 kPa | 1513.8 kg/m3
293.14 K, 21779 kPa | 1514.5 kg/m3
293.14 K, 21810 kPa | 1514.5 kg/m3
293.14 K, 21855 kPa | 1514.7 kg/m3
293.14 K, 21896 kPa | 1514.8 kg/m3
293.14 K, 23767 kPa | 1521.3 kg/m3
293.14 K, 32750 kPa | 1549.5 kg/m3
293.14 K, 32783 kPa | 1549.7 kg/m3
293.14 K, 32817 kPa | 1549.7 kg/m3
293.14 K, 32855 kPa | 1549.9 kg/m3
293.14 K, 32884 kPa | 1549.9 kg/m3
293.14 K, 32926 kPa | 1550.1 kg/m3
293.14 K, 32970 kPa | 1550.2 kg/m3
293.14 K, 32998 kPa | 1550.3 kg/m3
293.14 K, 33036 kPa | 1550.4 kg/m3
293.14 K, 33075 kPa | 1550.3 kg/m3
293.14 K, 33109 kPa | 1550.6 kg/m3
293.14 K, 33143 kPa | 1550.6 kg/m3
293.14 K, 33182 kPa | 1550.8 kg/m3
293.14 K, 33215 kPa | 1550.9 kg/m3
293.14 K, 33255 kPa | 1550.8 kg/m3
293.14 K, 33293 kPa | 1551.1 kg/m3
293.14 K, 33323 kPa | 1551.1 kg/m3
293.14 K, 33367 kPa | 1551.3 kg/m3
293.14 K, 33406 kPa | 1551.4 kg/m3
